Source: ChEMBL document CHEMBL1201862, “PubChem BioAssay data set” (2004)
Calls of active or inactive are those of the source.

How the values were obtained:
[1] = target: Mothers against decapentaplegic homolog 3 (Homo sapiens, UniProt P84022); test: Smad3 binding inhibitors, lysate ELISA, dose response, cell lysate, secondary confirmation, chemiluminescent ELISA, HEK293 lysate (AID 1058); assay type: functional
[2] = test system: Streptococcus sp. 'group A'; test: growth inhibition of control SK(-) GAS strain, dose response, counter-screen for streptokinase expression inhibitor project, luminescence, kanamycin, BacTiterGlo, confirmation (AID 1900); assay type: functional, organism-based
Streptococcus [3] = test: Luminescence Microorganism-Based Dose Response Follow up to Identify Compounds Cytotoxic to Streptococcus. [Related pubchem assays: 1677 (Project Summary), 1915, 1914, 1902 (Retest at Dose), 1900 (Counter Screen), 1662 (Primary HTS)]; assay type: functional, organism-based
Streptokinase A = target: T1, Streptokinase A (Streptococcus pyogenes serotype M1, UniProt P10520); test: S. pyogenes streptokinase expression inhibitors, potency, dose response, plasminogen activation absorbance, OD405 (AID 1914); assay type: functional, Streptococcus pyogenes M1 GAS;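 also: secreted streptokinase activity via plasminogen activation per viability signal from cell pellet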
T1 sequence (P10520 whole entry): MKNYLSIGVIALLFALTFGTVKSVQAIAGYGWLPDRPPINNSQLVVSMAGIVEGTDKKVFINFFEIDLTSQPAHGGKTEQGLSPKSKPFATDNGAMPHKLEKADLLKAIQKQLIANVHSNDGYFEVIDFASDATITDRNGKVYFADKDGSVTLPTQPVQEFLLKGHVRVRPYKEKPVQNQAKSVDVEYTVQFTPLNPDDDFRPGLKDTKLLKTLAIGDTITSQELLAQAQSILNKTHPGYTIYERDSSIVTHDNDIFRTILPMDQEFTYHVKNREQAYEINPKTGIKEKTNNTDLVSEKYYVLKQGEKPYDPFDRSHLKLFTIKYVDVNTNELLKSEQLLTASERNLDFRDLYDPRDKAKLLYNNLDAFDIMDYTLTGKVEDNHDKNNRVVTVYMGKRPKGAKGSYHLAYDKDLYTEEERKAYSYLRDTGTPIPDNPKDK

Streptococcus [4] = test: Group A Streptococcus viability loss, dose response, counter-screen for streptokinase expression inhibitor project, luminescence, BacTiterGlo (AID 1915); assay type: functional, organism-based;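 also: potency for reduction of bacterial viability or growth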
Estrogen receptor = target: T2, Estrogen receptor (Homo sapiens, UniProt P03372); test: ERα–SRC-3 coactivator interaction inhibitors, confirmation, orthogonal assay, biochemical, ELISA, streptavidin-HRP readout (AID 1079)
T2 sequence (P03372 whole entry): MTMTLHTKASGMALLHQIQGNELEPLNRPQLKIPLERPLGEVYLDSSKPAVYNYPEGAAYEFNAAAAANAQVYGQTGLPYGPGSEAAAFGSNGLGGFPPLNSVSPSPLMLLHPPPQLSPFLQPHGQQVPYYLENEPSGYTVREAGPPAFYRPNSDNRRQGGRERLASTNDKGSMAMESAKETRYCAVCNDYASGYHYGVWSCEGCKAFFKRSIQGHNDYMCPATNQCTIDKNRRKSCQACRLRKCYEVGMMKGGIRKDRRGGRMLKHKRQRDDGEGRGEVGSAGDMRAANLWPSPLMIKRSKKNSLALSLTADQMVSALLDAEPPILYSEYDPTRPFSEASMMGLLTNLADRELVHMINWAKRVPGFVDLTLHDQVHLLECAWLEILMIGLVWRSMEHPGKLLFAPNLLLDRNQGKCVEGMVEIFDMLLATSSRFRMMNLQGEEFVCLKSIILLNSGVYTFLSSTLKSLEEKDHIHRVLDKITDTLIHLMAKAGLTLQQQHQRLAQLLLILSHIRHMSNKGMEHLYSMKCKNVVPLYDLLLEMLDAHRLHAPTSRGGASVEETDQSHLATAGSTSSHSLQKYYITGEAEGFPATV

[5] = inhibitors of firefly luciferase expression or activity, dose response, H4 neuroglioma cells, luminescence (AID 1990); assay type: functional, cell-based
[6] = target: Luciferin 4-monooxygenase (Photinus pyralis, UniProt P08659); test: Counter Screen for Luciferase-based Assay Positives. [Related pubchem assays: 620, 618, 411 ]
[7] = Luminescence Cell-Based Dose Response HTS to Identify Inhibitors of 5'UTR Stem-Loop Driven Prion Protein mRNA Translation in H4 Neuroglioblastoma Cells. [Related pubchem assays: 1827 (Project Summary), 1813 (Primary HTS)]; assay type: functional
[8] = target: T3, Heat shock factor protein 1 (Mus musculus, UniProt P38532); test: inhibition of MG132-induced HSE-luciferase signal, confirmation, cell-based, NIH3T3, luminescence, dose retest (AID 2382); assay type: functional;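 also: NIH3T3 fibroblasts with HSF1-driven luciferase reporter stressed by proteasome inhibitor MG132; luminescence from HSF1-driven luciferase expression after 8 hours of MG132 stress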
T3 sequence (P38532 whole entry): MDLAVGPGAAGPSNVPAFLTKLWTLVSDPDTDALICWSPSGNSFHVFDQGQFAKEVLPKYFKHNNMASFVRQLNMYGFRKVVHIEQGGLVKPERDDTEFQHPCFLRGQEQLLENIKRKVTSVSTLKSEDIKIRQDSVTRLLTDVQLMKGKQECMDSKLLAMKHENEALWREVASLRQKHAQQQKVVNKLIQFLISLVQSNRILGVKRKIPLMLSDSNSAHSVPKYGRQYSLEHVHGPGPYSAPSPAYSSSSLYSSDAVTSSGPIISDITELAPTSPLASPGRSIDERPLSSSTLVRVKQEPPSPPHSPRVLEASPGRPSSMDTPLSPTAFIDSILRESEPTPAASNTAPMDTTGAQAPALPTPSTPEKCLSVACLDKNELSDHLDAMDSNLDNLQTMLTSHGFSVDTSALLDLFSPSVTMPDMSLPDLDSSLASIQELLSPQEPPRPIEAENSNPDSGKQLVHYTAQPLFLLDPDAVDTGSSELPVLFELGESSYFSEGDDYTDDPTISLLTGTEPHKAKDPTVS

[9] = inhibitors of SNCA 5'UTR-driven reporter translation, confirmation, H4 neuroglioma cells, luminescence (AID 1988); assay type: functional, cell-based
[10] = microbe, parasite or virus in culture; assay type: functional; conditions: Mycobacterium tuberculosis
HT-1080 = test: cytotoxicity in HT1080 fibrosarcoma cells, cell-based, fluorescence readout (AID 620); assay type: functional; conditions: Homo sapiens
[11] = target: Sphingosine 1-phosphate receptor 4 (Homo sapiens, UniProt O95977); test: Fluorescence dose response cell-based high throughput screening assay for antagonists of the Sphingosine 1-Phosphate Receptor 4 (S1P4). [Related pubchem assays: 1524 (Confirmation in triplicates.), 1510 (Primary screen.)]; assay type: functional
[12] = target: Sphingosine 1-phosphate receptor 1 (Homo sapiens, UniProt P21453); assay type: functional;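 also: Tango beta-arrestin reporter U2OS cells stimulated with S1P near its EC80; inhibitor potency meaning antagonism of receptor activation by the natural agonist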
CHO = test: cytotoxicity in TLR9-MyD88 CHO cells, dose response, cytotoxicity control for TLR9-MyD88 binding inhibitor project, cell-based, luminescence (AID 588339); assay type: functional, hamster; conditions: Cricetulus griseus;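 also: CHO cells stably coexpressing TLR9 and MyD88 fusions from primary screen; compound exposure lasted 48 hours before viability readout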
[13] = target: T4, High affinity choline transporter 1 (Homo sapiens, UniProt Q9GZV3); test: CHT inhibitors, dose response, cell-based, 5-point CRC, membrane potential dye (AID 504840); assay type: functional
T4 sequence (Q9GZV3 whole entry): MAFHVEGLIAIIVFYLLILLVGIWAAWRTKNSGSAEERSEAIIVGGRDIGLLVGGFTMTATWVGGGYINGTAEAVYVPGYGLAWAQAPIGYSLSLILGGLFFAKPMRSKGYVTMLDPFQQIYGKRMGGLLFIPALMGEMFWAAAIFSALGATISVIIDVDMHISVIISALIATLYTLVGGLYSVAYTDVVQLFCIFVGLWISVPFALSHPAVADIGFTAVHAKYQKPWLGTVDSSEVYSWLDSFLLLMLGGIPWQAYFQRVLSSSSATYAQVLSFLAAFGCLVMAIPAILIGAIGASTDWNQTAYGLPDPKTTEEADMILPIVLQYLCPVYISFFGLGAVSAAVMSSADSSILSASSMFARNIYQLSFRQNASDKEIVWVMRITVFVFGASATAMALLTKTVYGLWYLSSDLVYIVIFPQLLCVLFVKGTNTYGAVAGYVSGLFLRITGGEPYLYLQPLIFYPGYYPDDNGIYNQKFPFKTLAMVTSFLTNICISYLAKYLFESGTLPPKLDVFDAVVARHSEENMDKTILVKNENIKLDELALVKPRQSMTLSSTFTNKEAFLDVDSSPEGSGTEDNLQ

Protein RecA = target: T5, Protein RecA (Mycobacterium tuberculosis, UniProt P9WHJ3); test: Fluorescence Cell-Free Homogeneous Dose Retest to Identify Inhibitors of RecA-Intein Splicing Activity. [Related pubchem assays (depositor defined):AID2097, AID2223, AID489010, AID492950]; assay type: functional
T5 sequence (P9WHJ3 whole entry): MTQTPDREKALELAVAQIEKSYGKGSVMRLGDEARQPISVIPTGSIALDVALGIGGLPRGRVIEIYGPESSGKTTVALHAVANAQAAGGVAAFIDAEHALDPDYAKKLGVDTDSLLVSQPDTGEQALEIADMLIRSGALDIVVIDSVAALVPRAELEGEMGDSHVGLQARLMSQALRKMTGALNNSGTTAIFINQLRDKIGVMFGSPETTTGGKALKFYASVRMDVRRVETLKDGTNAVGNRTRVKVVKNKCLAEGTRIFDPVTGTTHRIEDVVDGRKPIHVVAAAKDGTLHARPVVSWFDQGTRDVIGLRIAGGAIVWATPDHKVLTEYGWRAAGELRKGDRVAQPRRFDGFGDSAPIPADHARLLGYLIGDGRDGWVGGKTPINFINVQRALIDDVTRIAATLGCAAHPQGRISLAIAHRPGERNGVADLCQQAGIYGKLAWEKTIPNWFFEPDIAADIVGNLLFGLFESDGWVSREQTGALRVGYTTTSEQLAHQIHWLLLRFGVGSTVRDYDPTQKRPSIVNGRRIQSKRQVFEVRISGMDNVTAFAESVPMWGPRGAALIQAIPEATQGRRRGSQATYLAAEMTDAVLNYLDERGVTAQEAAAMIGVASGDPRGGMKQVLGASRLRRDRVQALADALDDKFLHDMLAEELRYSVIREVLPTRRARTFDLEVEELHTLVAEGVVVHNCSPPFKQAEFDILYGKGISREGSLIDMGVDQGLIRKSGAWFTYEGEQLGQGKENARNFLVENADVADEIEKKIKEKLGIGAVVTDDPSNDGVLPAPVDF

[14] = target: T4, High affinity choline transporter 1; test: CHT inhibitors, dose response, cell-based, 10-point CRC, membrane potential dye (AID 588401); assay type: functional;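 also: membrane potential dye fluorescence of choline-evoked depolarization via CHT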
[15] = Shn3 3'UTR reporter inhibitors, dose response, cell-based, Clone20 osteoblasts, firefly luciferase, cherry-picked (AID 624132); assay type: functional;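 also: firefly luciferase luminescence from reporter carrying the Shn3 3'UTR in osteoblasts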
[16] = HepG2 cell cytotoxicity, dose response, cytotoxicity control for Shn3 inhibitor project, CellTiter-Glo, cherry-picked (AID 624134); assay type: functional, cell-based
[17] = control 3'UTR Renilla luciferase suppression, dose response, counter-screen for Shn3 inhibitor project, cell-based, Clone20-Shn3RL, cherry-picked (AID 624133); assay type: functional
[18] = target: G2/mitotic-specific cyclin-B1 (Homo sapiens, UniProt P14635); test: Counterscreen assay for inhibitors of Wee1 degradation: dose response cell-based assay to identify inhibitors of cyclin B degradation. [Related pubchem assays: 1410, 1321 ]; assay type: functional
Wee1-like protein kinase = Wee1-like protein kinase (Homo sapiens, UniProt P30291); test: Dose Response Cell-based Assay for Inhibitors of Wee1 Degradation. [Related pubchem assays: 1410, 1321 ]; assay type: functional
[19] = A cytotoxicity screen of small molecule inhibitors of the PhoP region in Salmonella typhi identified in the primary screen. [Related pubchem assays: 1850, 1864, 1985 ]; assay type: functional
Cysteine protease ATG4B = Cysteine protease ATG4B (Homo sapiens, UniProt Q9Y4P1); assay type: functional;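 also: Fluorescence-based dose-response confirmation assay measuring inhibition of ATG4B activity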
Phospholipase A2 = Phospholipase A2 (Homo sapiens, UniProt P04054); assay type: functional;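 also: confirmatory dose-response counterscreen on phospholipase A2, testing hits that came from an ultra-high-throughput screen for ATG4B inhibitors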
[20] = luciferase reporter signal reduction – luminescence, H4-C neuroglioblastoma cells, dose response (AID 2458); assay type: functional, cell-based;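 also: H4 neuroglioblastoma cells stably carrying a luciferase reporter gene fusion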
cells [21] = assay type: functional, cell-based
[22] = inhibitors of SNCA 5'UTR-driven translation, confirmation, luminescence, H4 neuroglioblastoma cells, dose confirmation (AID 2454); assay type: functional, cell-based;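 also: H4 neuroglioblastoma cells carrying an alpha-synuclein 5'UTR luciferase reporter; potency for inhibition of the luciferase signal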
cells [23] = assay type: functional, cell-based; remark: listed apart in the source
[24] = HeLa 2N DNA content increase, dose response, cell-based, IC50 (AID 1117349); assay type: functional
[25] = HeLa 4N DNA content increase, dose response, cell-based, IC50 (AID 1117351); assay type: functional

Cysteine protease ATG4B, sequence (Q9Y4P1 whole entry): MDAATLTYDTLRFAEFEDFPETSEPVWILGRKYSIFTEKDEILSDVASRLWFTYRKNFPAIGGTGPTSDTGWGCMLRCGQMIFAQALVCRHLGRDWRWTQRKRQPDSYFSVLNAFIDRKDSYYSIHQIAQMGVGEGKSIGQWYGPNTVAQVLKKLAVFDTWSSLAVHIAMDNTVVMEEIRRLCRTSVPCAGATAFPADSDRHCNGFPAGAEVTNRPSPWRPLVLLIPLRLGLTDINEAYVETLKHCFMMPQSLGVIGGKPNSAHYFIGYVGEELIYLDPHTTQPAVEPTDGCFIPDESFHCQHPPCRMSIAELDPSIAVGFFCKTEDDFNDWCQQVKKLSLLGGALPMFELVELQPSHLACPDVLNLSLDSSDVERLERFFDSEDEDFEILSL
Phospholipase A2, sequence (P04054 whole entry, the tested form may be a part): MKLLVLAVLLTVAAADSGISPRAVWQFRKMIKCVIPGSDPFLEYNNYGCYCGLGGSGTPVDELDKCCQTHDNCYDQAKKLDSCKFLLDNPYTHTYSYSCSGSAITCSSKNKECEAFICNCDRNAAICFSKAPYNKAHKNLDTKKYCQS
G2/mitotic-specific cyclin-B1, sequence (P14635 whole entry): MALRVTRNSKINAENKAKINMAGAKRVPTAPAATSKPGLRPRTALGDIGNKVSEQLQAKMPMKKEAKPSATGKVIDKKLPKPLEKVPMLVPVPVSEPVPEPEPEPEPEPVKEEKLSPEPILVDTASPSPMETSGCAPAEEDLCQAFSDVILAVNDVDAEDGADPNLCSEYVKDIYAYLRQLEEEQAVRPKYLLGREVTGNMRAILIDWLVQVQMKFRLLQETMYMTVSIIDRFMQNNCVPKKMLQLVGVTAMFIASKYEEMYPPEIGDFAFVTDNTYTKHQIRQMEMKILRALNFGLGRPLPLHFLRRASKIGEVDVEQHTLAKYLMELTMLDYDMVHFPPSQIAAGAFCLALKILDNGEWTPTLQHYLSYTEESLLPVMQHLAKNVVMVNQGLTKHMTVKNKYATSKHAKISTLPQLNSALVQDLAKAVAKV
Luciferin 4-monooxygenase, sequence (P08659 whole entry): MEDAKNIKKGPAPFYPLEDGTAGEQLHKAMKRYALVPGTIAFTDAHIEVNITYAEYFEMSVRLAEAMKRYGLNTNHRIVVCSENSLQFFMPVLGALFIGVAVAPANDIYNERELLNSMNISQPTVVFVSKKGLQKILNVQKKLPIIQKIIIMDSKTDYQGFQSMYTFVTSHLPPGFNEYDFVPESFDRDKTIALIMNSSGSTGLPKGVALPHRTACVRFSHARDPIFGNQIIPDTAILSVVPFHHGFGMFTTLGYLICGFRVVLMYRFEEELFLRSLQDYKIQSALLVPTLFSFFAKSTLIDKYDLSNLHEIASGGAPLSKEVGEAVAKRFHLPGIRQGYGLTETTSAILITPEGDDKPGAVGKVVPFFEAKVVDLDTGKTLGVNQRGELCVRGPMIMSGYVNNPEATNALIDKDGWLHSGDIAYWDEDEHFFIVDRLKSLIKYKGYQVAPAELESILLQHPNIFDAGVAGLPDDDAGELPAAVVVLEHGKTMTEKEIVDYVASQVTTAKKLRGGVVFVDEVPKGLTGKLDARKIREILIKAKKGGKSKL
Sphingosine 1-phosphate receptor 4, sequence (O95977 whole entry): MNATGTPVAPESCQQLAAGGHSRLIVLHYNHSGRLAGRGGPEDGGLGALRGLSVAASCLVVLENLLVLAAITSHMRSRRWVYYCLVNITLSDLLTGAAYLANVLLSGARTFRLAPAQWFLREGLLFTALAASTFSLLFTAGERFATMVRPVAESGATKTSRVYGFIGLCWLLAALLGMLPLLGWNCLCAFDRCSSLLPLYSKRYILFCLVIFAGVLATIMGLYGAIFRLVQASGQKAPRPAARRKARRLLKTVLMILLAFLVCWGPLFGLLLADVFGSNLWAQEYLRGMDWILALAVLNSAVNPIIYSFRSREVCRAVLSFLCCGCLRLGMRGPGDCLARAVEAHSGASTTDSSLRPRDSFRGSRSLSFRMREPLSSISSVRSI
Sphingosine 1-phosphate receptor 1, sequence (P21453 whole entry, the tested form may be a part): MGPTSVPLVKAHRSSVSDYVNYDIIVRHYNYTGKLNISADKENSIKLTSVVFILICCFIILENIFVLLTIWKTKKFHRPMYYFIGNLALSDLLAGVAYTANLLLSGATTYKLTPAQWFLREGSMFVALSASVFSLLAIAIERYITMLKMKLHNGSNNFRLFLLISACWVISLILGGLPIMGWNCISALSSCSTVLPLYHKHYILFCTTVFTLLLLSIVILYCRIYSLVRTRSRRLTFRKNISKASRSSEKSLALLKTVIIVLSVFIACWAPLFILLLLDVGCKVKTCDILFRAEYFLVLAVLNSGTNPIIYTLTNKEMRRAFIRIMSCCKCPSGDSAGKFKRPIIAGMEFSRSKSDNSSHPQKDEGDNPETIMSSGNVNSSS
Wee1-like protein kinase, sequence (P30291 whole entry): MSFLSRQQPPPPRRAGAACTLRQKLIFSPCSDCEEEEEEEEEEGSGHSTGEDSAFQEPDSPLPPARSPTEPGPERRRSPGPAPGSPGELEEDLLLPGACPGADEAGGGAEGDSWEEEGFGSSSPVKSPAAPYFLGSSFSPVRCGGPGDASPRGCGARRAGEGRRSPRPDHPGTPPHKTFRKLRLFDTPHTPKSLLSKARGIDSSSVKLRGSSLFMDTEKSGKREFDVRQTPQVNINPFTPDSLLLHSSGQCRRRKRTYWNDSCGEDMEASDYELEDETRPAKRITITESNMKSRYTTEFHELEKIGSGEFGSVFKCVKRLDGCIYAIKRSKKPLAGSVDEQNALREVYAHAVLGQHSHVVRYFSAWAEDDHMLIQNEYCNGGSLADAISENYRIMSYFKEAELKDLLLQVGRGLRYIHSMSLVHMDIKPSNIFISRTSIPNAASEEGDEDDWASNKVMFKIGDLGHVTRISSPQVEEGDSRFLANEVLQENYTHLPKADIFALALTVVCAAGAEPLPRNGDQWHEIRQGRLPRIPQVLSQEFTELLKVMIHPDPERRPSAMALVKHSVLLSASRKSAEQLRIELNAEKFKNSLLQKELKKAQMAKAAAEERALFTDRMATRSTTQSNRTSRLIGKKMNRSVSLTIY
Mothers against decapentaplegic homolog 3, sequence (P84022 whole entry): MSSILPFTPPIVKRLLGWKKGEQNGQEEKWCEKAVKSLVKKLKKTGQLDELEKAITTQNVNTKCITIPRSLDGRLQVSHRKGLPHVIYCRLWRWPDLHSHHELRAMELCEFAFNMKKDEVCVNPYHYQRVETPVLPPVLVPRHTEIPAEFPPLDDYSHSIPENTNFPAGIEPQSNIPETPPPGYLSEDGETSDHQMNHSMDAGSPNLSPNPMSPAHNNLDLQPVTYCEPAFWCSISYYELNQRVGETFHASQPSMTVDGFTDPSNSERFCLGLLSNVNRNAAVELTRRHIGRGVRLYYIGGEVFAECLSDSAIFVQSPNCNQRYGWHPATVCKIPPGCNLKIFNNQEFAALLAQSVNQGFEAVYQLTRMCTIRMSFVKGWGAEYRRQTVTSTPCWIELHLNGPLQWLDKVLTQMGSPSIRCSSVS

In the case of `Oc1ccccc1C(c1cc2c(cc1O)OCO2)N1CCOCC1` (stereo not given), the IC50 [1] is reported as 6.96 µM (not active).

For `Cc1cc(C(=O)OC(C(=O)Nc2cccc(C(F)(F)F)c2)c2ccccc2)c(C)o1` (stereo not given), the EC50 [2] was 22.6 µM (active), the EC50 (Streptococcus [3]) was > 500 µM (not active) and the EC50 (Streptokinase A) was 4.11 µM (active). The EC50 (Streptococcus [4]) was > 150 µM (not active).

For `O=C(CCCCCn1c(=S)[nH]c2ccccc2c1=O)N1CCC(Nc2ccccc2)CC1`, the IC50 (Estrogen receptor) was 0.18 µM (not active).

For `CN1/C(=C/C(=O)c2nc(S(C)(=O)=O)ncc2Cl)C(C)(C)c2ccccc21`, the EC50 [5] was > 120 µM (not active), the EC50 [6] was 1.14 µM (active) and the EC50 [7] was 10.1 µM (active). The EC50 [8] was 4.37 µM (active), the EC50 [9] was 9.18 µM (active) and the CC50 [10] was 19.5 µM (active). For the same compound, the EC50 (HT-1080) was 17.8 µM (active), the IC50 [11] was 1.31 µM (active) and the IC50 [12] was 11.9 µM (not active). The IC50 (CHO) was 2.72 µM (active), the IC50 [13] was 4.81 µM (active) and the EC50 (Protein RecA) was 1.81 µM (active). For the same compound, the IC50 [14] was 3.81 µM (active), the AC50 [15] was 5.21 µM (active) and the AC50 [16] was 12.2 µM (active). The AC50 [17] was 8.57 µM (active).

In the case of `Cn1cccc1/C=C1\SC(Nc2ccccc2)=NC1=O`, the EC50 [18] is reported as > 5.53 µM (active) and the EC50 (Wee1-like protein kinase) is reported as > 49.7 µM (not active).

With `O=c1c2ccccc2nc(-c2ccoc2)n1CCc1ccccc1` the EC50 [19] was > 50 µM (active), the IC50 (Cysteine protease ATG4B) was 14.3 µM (active) and the IC50 (Phospholipase A2) was 13.9 µM (active).

In the case of `COC(=O)Nc1nc2cc(C(=O)c3cccs3)ccc2[nH]1` [NOCODAZOLE], the EC50 [20] is reported as 0.195 µM (active), the EC50 (cells [21]) is reported as 0.203 µM (active) and the EC50 [7] is reported as < 0.1 µM (active). The EC50 [9] was < 0.1 µM (active), the EC50 [22] was 0.183 µM (active) and the IC50 (cells [23]) was > 67.5 µM (inactive). The IC50 [24] was 0.0174 µM (active) and the IC50 [25] was 0.0176 µM (active).
